A short description of this test: Blocker Index (BI), expert graders on malodorous fabric swatches. Also noted: key: 0-3 malodor scale; 0 = clean untreated swatch. From the text:
Blocker materials suitable for use in consumer products of the present invention are chosen for their ability to decrease malodor, while not interfering with perception of a fragrance. Material selection is done by assigning two indices to a test sample material from two reference scales in order to rank odor strengths. The two reference scales are the Fragrance Fidelity Index (FFI) scale and the Blocker Index (BI) scale. The FFI ranks the ability of the test sample material to impart a perceivable odor which could cause interference when combined with another fragrance and the BI ranks the ability of the test sample material to reduce malodor perception. The two methods for assigning the indices to a test sample on the FFI and the BI reference scales are given below.
The first step in the method for assigning a BI to a test sample material on the BI reference scale is to create the BI reference swatches. […] Fabric swatches for this test are white knit polycotton (4 inch×4 inch) swatches from EMC ordered as PC 50/50. The supplier is instructed to strip the swatches first, stripping involves washing twice with a fragrance-free detergent and rinsing three times.
The BI scale contains one clean swatch with no malodor applied. […] These solutions are pipetted to the middle of the swatches. […] After drying for 30 minutes in a vented hood, the swatches are wrapped in aluminum foil to prevent odor contamination to the treated swatch. A clean untreated swatch is also included as the lowest anchor point of reference for malodor strength on the BI scale. The BI reference scale swatches should be used within 0.5 to 12 hours and discarded after 12 hours. The swatches are used as scale anchor points when graders evaluate a test sample(s) and are assigned a Blocker Index (BI) as show in Table 12.
The perfumer/expert grader is asked to rank order swatches according to a scale between 0 and 3.
The reference swatches represent the 0, 1, 2, and 3 BIs on the BI reference scale, Table 12. […]

Regarding `CC(C)CC(=O)O` [isovaleric acid], the “BI grade of reference swatch, individual Expert Grader” value runs as follows: (stripped swatch with 2 μL 0.08% isovaleric acid) 2.0; (stripped swatch with 5 μL 0.08% isovaleric acid) 2.0; (stripped swatch with 20 μL 0.08% isovaleric acid) 3.0.

The record behind these values is patent US20170107462A1, “ARRAY OF FABRIC TREATMENT PRODUCTS” (The Procter & Gamble Company, priority 2015, published 2017).
